In ChEMBL document CHEMBL5154804, “Species-Selective Targeting of Fungal Hsp90: Design, Synthesis, and Evaluation of Novel 4,5-Diarylisoxazole Derivatives for the Combination Treatment of Azole-Resistant Candidiasis” (J Med Chem, 2022):

Columns and labels:
Candida albicans [1] = experiment: Synergistic antifungal activity against fluconazole-resistant Candida albicans 901 assessed as inhibition of fungal growth in presence of fluconazole by checker board microdilution assay; format: functional
Candida albicans [2] = experiment: Synergistic antifungal activity against fluconazole-resistant Candida albicans 904 assessed as inhibition of fungal growth in presence of fluconazole by checker board microdilution assay; format: functional
Candida albicans [3] = experiment: Synergistic antifungal activity against fluconazole-resistant Candida albicans 632 assessed as inhibition of fungal growth in presence of fluconazole by checker board microdilution assay; format: functional
Candida albicans [4] = experiment: Synergistic antifungal activity against fluconazole-resistant Candida albicans 100 assessed as inhibition of fungal growth in presence of fluconazole by checker board microdilution assay; format: functional
Candida albicans [5] = experiment: Synergistic antifungal activity against fluconazole-resistant Candida albicans 103 assessed as inhibition of fungal growth in presence of fluconazole by checker board microdilution assay; format: functional
Candida albicans [6] = experiment: Synergistic antifungal activity against fluconazole-resistant Candida albicans 311 assessed as inhibition of fungal growth in presence of fluconazole by checker board microdilution assay; format: functional
Candida albicans [7] = experiment: Antifungal activity against fluconazole-resistant Candida albicans 901 assessed as inhibition of fungal growth by checker board microdilution assay; format: functional
Candida albicans [8] = experiment: Antifungal activity against fluconazole-resistant Candida albicans 904 assessed as inhibition of fungal growth by checker board microdilution assay; format: functional
Candida albicans [9] = experiment: Antifungal activity against fluconazole-resistant Candida albicans 632 assessed as inhibition of fungal growth by checker board microdilution assay; format: functional
Candida albicans [10] = experiment: Antifungal activity against fluconazole-resistant Candida albicans 100 assessed as inhibition of fungal growth by checker board microdilution assay; format: functional
Candida albicans [11] = experiment: Antifungal activity against fluconazole-resistant Candida albicans 103 assessed as inhibition of fungal growth by checker board microdilution assay; format: functional
Candida albicans [12] = experiment: Antifungal activity against fluconazole-resistant Candida albicans 311 assessed as inhibition of fungal growth by checker board microdilution assay; format: functional
Candida albicans [13] = experiment: Synergetic antifungal activity against fluconazole-resistant Candida albicans 901 assessed as fractional inhibitory concentration index in presence of fluconazole by checker board microdilution assay; format: functional
Candida albicans [14] = experiment: Synergetic antifungal activity against fluconazole-resistant Candida albicans 904 assessed as fractional inhibitory concentration index in presence of fluconazole by checker board microdilution assay; format: functional
Candida albicans [15] = experiment: Synergetic antifungal activity against fluconazole-resistant Candida albicans 632 assessed as fractional inhibitory concentration index in presence of fluconazole by checker board microdilution assay; format: functional
Candida albicans [16] = experiment: Synergetic antifungal activity against fluconazole-resistant Candida albicans 100 assessed as fractional inhibitory concentration index in presence of fluconazole by checker board microdilution assay; format: functional
Candida albicans [17] = experiment: Synergetic antifungal activity against fluconazole-resistant Candida albicans 103 assessed as fractional inhibitory concentration index in presence of fluconazole by checker board microdilution assay; format: functional
Candida albicans [18] = experiment: Synergetic antifungal activity against fluconazole-resistant Candida albicans 311 assessed as fractional inhibitory concentration index in presence of fluconazole by checker board microdilution assay; format: functional
A549 = experiment: Cytotoxicity against human A549 cell assessed as inhibition of cell growth after 24 hrs by MTT assay; format: functional, cell-based; settings: A549, 24 h
MCF7 = experiment: Cytotoxicity against human MCF7 cell assessed as inhibition of cell growth after 24 hrs by MTT assay; format: functional, cell-based; settings: MCF7, 24 h
HepG2 = experiment: Cytotoxicity against human HepG2 cell assessed as inhibition of cell growth after 24 hrs by MTT assay; format: functional, cell-based; settings: HepG2, 24 h
[19] = Cytotoxicity against human THLE-2 cell assessed as inhibition of cell growth after 24 hrs by MTT assay; format: toxicity, cell-based; settings: THLE-2 cells
[20] = Cytotoxicity against human BEAS-2B cell assessed as inhibition of cell growth after 24 hrs by MTT assay; format: toxicity, cell-based; settings: BEAS-2B cells
[21] = Cytotoxicity against mouse NIH3T3 cell assessed as inhibition of cell growth after 24 hrs by MTT assay; format: toxicity, cell-based; settings: NIH3T3 cells
RAW264.7 = experiment: Cytotoxicity against mouse RAW264.7 cell assessed as inhibition of cell growth after 24 hrs by MTT assay; format: functional, cell-based; settings: RAW264.7, 24 h
[22] = Cytotoxicity against mouse BV-2 cell assessed as inhibition of cell growth after 24 hrs by MTT assay; format: toxicity, cell-based; settings: BV-2 cells
[23] = Binding affinity to recombinant Candida albicans Hsp90 NBD expressed in Escherichia coli by SPR assay
Heat shock protein HSP90 = Heat shock protein HSP90 (Homo sapiens, UniProt P07900+P08238); experiment: Binding affinity to human Hsp90 expressed in Escherichia coli by SPR assay
[24] = Metabolic stability in human liver microsomes assessed as half life in presence of NADPH cofactor under shaking condition for 10 mins measured after 5 to 60 mins by LC-MS/MS analysis; format: ADME, Microsome; settings: time 15-70 min
[25] = Metabolic stability in human liver microsomes assessed as microsomal intrinsic clearance in presence of NADPH cofactor under shaking condition for 10 mins measured after 5 to 60 mins by LC-MS/MS analysis; format: ADME, Microsome; settings: time 15-70 min
[26] = Metabolic stability in human liver microsomes assessed as intrinsic clearance in presence of NADPH cofactor under shaking condition for 10 mins measured after 5 to 60 mins by LC-MS/MS analysis; format: ADME, Microsome; settings: time 15-70 min
[27] = Metabolic stability in human liver microsomes assessed as compound remaining in presence of NADPH cofactor under shaking condition for 10 mins measured after 60 mins by LC-MS/MS analysis; format: ADME, Microsome; settings: time 70 min, read-out: Stability
[28] = Stability in human plasma assessed as compound remaining at 120 mins by LC-MS/MS analysis; format: ADME, cell-free; settings: read-out: Stability
[29] = Stability in human plasma assessed as half life at 120 mins by LC-MS/MS analysis; format: ADME, cell-free
CYP1A2 = biological target: T1, CYP1A2 (Homo sapiens, UniProt P05177); experiment: Inhibition of CYP1A2 in human liver microsome at 10 uM using phenacetin as substrate incubated for 10 mins in presence of NADPH cofactor by LC-MS/MS analysis; format: ADME; settings: liver microsomes, probe phenacetin
T1 sequence (P05177 whole entry): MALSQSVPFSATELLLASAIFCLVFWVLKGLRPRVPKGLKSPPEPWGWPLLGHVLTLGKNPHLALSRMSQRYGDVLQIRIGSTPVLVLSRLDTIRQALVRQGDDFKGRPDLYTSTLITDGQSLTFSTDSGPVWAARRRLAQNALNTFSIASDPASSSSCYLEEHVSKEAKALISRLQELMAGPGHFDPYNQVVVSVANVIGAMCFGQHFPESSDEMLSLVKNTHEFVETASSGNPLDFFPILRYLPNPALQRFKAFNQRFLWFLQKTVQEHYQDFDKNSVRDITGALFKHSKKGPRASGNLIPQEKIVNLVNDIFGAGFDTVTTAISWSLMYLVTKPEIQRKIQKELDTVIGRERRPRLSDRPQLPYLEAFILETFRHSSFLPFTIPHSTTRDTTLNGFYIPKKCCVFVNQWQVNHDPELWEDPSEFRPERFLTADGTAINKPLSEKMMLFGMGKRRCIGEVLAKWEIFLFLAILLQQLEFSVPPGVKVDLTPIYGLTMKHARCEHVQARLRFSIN

CYP2C9 = CYP2C9 (Homo sapiens, UniProt P11712); experiment: Inhibition of CYP2C9 in human liver microsome at 10 uM using diclofenac as substrate incubated for 10 mins in presence of NADPH cofactor by LC-MS/MS analysis; format: ADME; settings: liver microsomes, probe diclofenac
Chain of CYP2C9 (P11712 whole entry): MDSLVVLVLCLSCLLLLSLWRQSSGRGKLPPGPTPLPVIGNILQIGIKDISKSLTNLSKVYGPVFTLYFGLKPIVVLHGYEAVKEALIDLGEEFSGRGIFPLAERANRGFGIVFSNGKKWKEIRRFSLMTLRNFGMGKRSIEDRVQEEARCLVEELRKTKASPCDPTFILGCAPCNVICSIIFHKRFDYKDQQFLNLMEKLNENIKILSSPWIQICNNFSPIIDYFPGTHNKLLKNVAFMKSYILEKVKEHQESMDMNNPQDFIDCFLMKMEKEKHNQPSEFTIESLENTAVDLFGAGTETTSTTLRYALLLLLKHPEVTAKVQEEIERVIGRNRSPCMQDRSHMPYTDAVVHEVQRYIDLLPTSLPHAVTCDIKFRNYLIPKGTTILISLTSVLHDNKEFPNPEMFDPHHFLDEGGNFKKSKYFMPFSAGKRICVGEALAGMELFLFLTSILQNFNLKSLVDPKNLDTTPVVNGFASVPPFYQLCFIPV

CYP2C19 = CYP2C19 (Homo sapiens, UniProt P33261); experiment: Inhibition of CYP2C19 in human liver microsome at 10 uM using S-mephenytoin as substrate incubated for 10 mins in presence of NADPH cofactor by LC-MS/MS analysis; format: ADME; settings: liver microsomes, probe S-mephenytoin
Chain of CYP2C19 (P33261 whole entry): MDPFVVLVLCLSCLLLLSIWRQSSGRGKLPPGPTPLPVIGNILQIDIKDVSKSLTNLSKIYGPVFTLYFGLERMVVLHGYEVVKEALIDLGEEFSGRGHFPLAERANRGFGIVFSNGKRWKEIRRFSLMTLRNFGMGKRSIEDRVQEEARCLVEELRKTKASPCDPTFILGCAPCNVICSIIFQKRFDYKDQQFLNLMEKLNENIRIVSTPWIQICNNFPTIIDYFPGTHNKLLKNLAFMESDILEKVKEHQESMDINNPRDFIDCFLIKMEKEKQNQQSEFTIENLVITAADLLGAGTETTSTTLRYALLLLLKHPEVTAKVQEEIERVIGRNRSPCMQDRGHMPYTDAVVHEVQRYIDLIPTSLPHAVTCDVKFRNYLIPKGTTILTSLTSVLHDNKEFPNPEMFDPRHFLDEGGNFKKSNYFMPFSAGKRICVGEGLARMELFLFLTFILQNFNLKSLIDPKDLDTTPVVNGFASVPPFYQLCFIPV

CYP2D6 = CYP2D6 (Homo sapiens, UniProt P10635); experiment: Inhibition of CYPD6 in human liver microsome at 10 uM using dextromethorphan as substrate incubated for 10 mins in presence of NADPH cofactor by LC-MS/MS analysis; format: ADME; settings: liver microsomes, probe dextromethorphan
Chain of CYP2D6 (P10635 whole entry): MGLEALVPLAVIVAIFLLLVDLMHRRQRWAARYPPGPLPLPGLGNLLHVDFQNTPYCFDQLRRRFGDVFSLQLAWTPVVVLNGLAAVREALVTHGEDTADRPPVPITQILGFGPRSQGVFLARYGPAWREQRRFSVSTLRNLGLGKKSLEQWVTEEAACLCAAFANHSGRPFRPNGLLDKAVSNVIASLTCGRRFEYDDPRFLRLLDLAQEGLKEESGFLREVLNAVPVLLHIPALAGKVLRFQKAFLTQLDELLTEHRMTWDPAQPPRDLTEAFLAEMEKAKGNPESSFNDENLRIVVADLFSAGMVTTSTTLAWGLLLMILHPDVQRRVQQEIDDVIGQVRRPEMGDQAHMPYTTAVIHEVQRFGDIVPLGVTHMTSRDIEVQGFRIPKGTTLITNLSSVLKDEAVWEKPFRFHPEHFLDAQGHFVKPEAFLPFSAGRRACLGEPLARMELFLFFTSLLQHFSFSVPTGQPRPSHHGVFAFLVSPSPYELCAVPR

CYP3A4 = CYP3A4 (Homo sapiens, UniProt P08684); experiment: Inhibition of CYP3A4 in human liver microsome at 10 uM using midazolam as substrate incubated for 10 mins in presence of NADPH cofactor by LC-MS/MS analysis; format: ADME; settings: liver microsomes, probe midazolam
Chain of CYP3A4 (P08684 whole entry): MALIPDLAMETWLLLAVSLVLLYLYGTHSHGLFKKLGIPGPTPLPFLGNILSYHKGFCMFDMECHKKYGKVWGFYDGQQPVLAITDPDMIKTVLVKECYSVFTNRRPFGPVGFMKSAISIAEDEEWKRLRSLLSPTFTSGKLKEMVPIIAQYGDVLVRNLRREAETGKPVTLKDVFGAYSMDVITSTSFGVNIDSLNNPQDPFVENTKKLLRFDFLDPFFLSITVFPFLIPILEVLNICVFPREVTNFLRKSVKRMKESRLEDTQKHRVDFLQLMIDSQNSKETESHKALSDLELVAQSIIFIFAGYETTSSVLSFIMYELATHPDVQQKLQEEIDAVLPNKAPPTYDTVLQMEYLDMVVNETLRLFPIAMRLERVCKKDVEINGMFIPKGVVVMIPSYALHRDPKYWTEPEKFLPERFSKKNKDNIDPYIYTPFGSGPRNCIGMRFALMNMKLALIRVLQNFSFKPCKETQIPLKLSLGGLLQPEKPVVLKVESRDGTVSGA

Candida albicans [30] = experiment: Potentiation of fluconazole-induced antifungal activity against fluconazole-resistant Candida albicans 901 assessed as fluconazole MIC by checker board microdilution assay; format: functional
Candida albicans [31] = experiment: Potentiation of fluconazole-induced antifungal activity against fluconazole-resistant Candida albicans 904 assessed as fluconazole MIC by checker board microdilution assay; format: functional
Candida albicans [32] = experiment: Potentiation of fluconazole-induced antifungal activity against fluconazole-resistant Candida albicans 632 assessed as fluconazole MIC by checker board microdilution assay; format: functional
Candida albicans [33] = experiment: Potentiation of fluconazole-induced antifungal activity against fluconazole-resistant Candida albicans 100 assessed as fluconazole MIC by checker board microdilution assay; format: functional
Candida albicans [34] = experiment: Potentiation of fluconazole-induced antifungal activity against fluconazole-resistant Candida albicans 103 assessed as fluconazole MIC by checker board microdilution assay; format: functional
Candida albicans [35] = experiment: Potentiation of fluconazole-induced antifungal activity against fluconazole-resistant Candida albicans 311 assessed as fluconazole MIC by checker board microdilution assay; format: functional

CCNC(=O)c1noc(-c2cc(-c3ccc(C)cc3)c(O)cc2O)c1-c1ccc(CN2CCCCC2)cc1
MIC80 (Candida albicans [1]): 0.25 µg/mL
MIC80 (Candida albicans [2]): 0.25 µg/mL
MIC80 (Candida albicans [3]): 0.5 µg/mL
MIC80 (Candida albicans [4]): 0.25 µg/mL
MIC80 (Candida albicans [5]): 0.5 µg/mL
MIC80 (Candida albicans [6]): 1 µg/mL
MIC80 (Candida albicans [7]): > 64 µg/mL
MIC80 (Candida albicans [8]): > 64 µg/mL
MIC80 (Candida albicans [9]): > 64 µg/mL
MIC80 (Candida albicans [10]): > 64 µg/mL
MIC80 (Candida albicans [11]): > 64 µg/mL
MIC80 (Candida albicans [12]): > 64 µg/mL
fractional inhibitory concentration index (FICI) (Candida albicans [13]): 0.02
fractional inhibitory concentration index (FICI) (Candida albicans [14]): 0.035
fractional inhibitory concentration index (FICI) (Candida albicans [15]): 0.039
fractional inhibitory concentration index (FICI) (Candida albicans [16]): 0.02
fractional inhibitory concentration index (FICI) (Candida albicans [17]): 0.039
fractional inhibitory concentration index (FICI) (Candida albicans [18]): 0.047
IC50 (A549): 13.8 µM
IC50 (MCF7): 5.49 µM
IC50 (HepG2): 4.71 µM
IC50 at 24 h [19]: 5.72 µM
IC50 at 24 h [20]: 10 µM
IC50 at 24 h [21]: 0.73 µM
IC50 (RAW264.7): 3.87 µM
IC50 at 24 h [22]: 4.06 µM
Kd [23]: 0.139 µM
Kd (Heat shock protein HSP90): > 25 µM
half-life [24]: 43.3 min
CLint [25]: 32 µL/min/mg
CLint [26]: 28.8 mL/min/kg
remaining at 1.167 h [27]: 37.9%
remaining at 2 h [28]: 90.6%
half-life [29]: > 288 min
inhibition at 10 min, 10 µM (CYP1A2): 12%
inhibition at 10 min, 10 µM (CYP2C9): 39.2%
inhibition at 10 min, 10 µM (CYP2C19): 25.4%
inhibition at 10 min, 10 µM (CYP2D6): 76.6%
inhibition at 10 min, 10 µM (CYP3A4): 39.8%
MIC80 (Candida albicans [30]): 1 µg/mL
MIC80 (Candida albicans [31]): 2 µg/mL
MIC80 (Candida albicans [32]): 2 µg/mL
MIC80 (Candida albicans [33]): 1 µg/mL
MIC80 (Candida albicans [34]): 2 µg/mL
MIC80 (Candida albicans [35]): 2 µg/mL

CCNC(=O)c1noc(-c2cc(-c3ccccc3)c(O)cc2O)c1-c1ccc(CN2CCOCC2)cc1
MIC80 (Candida albicans [1]): 1 µg/mL
MIC80 (Candida albicans [2]): 2 µg/mL
MIC80 (Candida albicans [3]): 4 µg/mL
MIC80 (Candida albicans [4]): 2 µg/mL
MIC80 (Candida albicans [5]): 4 µg/mL
MIC80 (Candida albicans [6]): 4 µg/mL
Kd [23]: 7.91 µM
Kd (Heat shock protein HSP90): > 25 µM

CCNC(=O)c1noc(-c2cc(-c3cccc(C(C)C)c3)c(O)cc2O)c1-c1ccc(CN2CCOCC2)cc1
MIC80 (Candida albicans [1]): 0.25 µg/mL
MIC80 (Candida albicans [2]): 0.25 µg/mL
MIC80 (Candida albicans [3]): 0.5 µg/mL
MIC80 (Candida albicans [4]): 0.25 µg/mL
MIC80 (Candida albicans [5]): 0.25 µg/mL
MIC80 (Candida albicans [6]): 0.5 µg/mL
Kd [23]: 0.476 µM
Kd (Heat shock protein HSP90): > 25 µM
half-life [24]: 15.1 min
CLint [25]: 91.9 µL/min/mg
CLint [26]: 82.7 mL/min/kg
remaining at 1.167 h [27]: 6.1%

CCNC(=O)c1noc(-c2cc(-c3cccc(CC)c3)c(O)cc2O)c1-c1ccc(CN2CCOCC2)cc1
MIC80 (Candida albicans [1]): 0.25 µg/mL
MIC80 (Candida albicans [2]): 0.5 µg/mL
MIC80 (Candida albicans [3]): 0.5 µg/mL
MIC80 (Candida albicans [4]): 0.25 µg/mL
MIC80 (Candida albicans [5]): 1 µg/mL
MIC80 (Candida albicans [6]): 0.5 µg/mL
half-life [24]: 17.2 min
CLint [25]: 80.7 µL/min/mg
CLint [26]: 72.7 mL/min/kg
remaining at 1.167 h [27]: 9.2%
